Results as given in patent publication US8648116B2, “Derivatives of N-(arylamino) sulfonamides including polymorphs as inhibitors of MEK as well as compositions, methods of use and methods for preparing the same” (Ardea Biosciences, Inc., priority 2005, dated 2014).
Where two headings read alike, the source gives them in different places.

Experiments:
[1] = test system: carrageenan-induced hind paw edema; assay: Carrageenan-induced paw edema (CPE); type: in vivo, Sprague-Dawley rats; details: 6, 20 & 60 mg/kg orally 2 hr before carrageenan; all dose groups
Procedure: Compound A (6, 20 & 60 mg/kg) or indomethacin (3 mg/kg) were administered orally 2 hr prior to injection of 1% suspension of carrageenan into the right hind foot pad of male Sprague-Dawley rats (N-6 per treatment group). The hind paw edema was measured 3 hr later by assessing paw volume by plethysmography. Reduction of hind paw edema by 30% or greater indicates significant acute anti-inflammatory activity. Indomethacin (Indo) was used as a positive control drug.

[2] = test system: pERK in brain; assay: MEK inhibition (pERK, Western blot) against plasma concentration, brain; type: in vivo, nu/nu mice
Procedure: Human tumors were implanted in nu/nu mice. Compound A was administered orally for 14 days once tumors were approximately 100 mm^3 in size. Tumor growth inhibition (TGI) was determined after 14 days of treatment as the reduction in the size of tumors in treated groups versus vehicle controls. The time to endpoint (TTE) was calculated as the time for the tumor to reach the specified endpoint volume or the last day of the study, whichever came first. Treatment outcome was determined from percent tumor growth delay (% TGD), defined as the percent increase in median TTE of treated versus vehicle-treated control mice. Animals were also monitored for regression responses. Levels of pERK in tumors and brain were determined by Western blots and correlated with plasma levels of Compound A for the pharmacodynamic/pharmacokinetic study. A number of tumor models were evaluated with different doses and dosing regimens. […] The effect of different dosing regimens was evaluated in A375 xenografts.
Female nu/nu mice implanted with Colo205 tumor cells were given a single dose of vehicle or Compound A at 2.5, 5, 10, or 25 mg/kg. Compound levels were determined in plasma samples and pERK levels were determined in tumor and brain samples collected at 2, 6, 12, and 24 hr post-dose. […]

[3] = Pharmacokinetic parameters in Balb/c mice (Example 94D); type: in vivo
Procedure: Pharmacokinetic parameters were obtained from dosing Balb/c mice with 25 mg/kg Compound A and extrapolating values for the lower dose groups and shown in the table below.

[4] = test system: A431 epidermoid cells; assay: Anchorage-independent growth inhibition (MTS, 7 days, non-binding plates); type: cell-based; details: Homo sapiens, A-431, 168 h, BRAF Normal, read-out: Anchorage-Independent GI50 (nM ± sd)
[5] = Concentration-time profiles after a single dose of capsules; parameters: species or system human cancer patients; details: human, in vivo, oral, capsules of example 95A
[6] = test system: A375 cells; assay: Evaluation of cell cycle arrest (propidium iodide, flow cytometry); type: cell-based, human; details: 24 hr
Procedure: A375 cells were plated in 96-well microplates at 10,000 cells/200 μl/well. […] After another 24 hr, cells were trypsinized, fixed in 200 μl Prefer (Anatech, Battle Creek, Mich.), and stored at 4° C. overnight. Cells were then rinsed in PBS, permeabilized and stained in 0.1% Triton X-100, 200 μg/ml DNase-free RNase, and […] propidium iodide (Molecular Probes, Sunnyvale, Calif.), and analyzed on the Guava PCA-96 (Guava Technologies, Foster City, Calif.). Data were analyzed using ModFit LT (version 3.0, Verity, Topsham, Me.).

[7] = test system: A375 cells; assay: Cytotoxic lysis by adenylate kinase (AK) release, 48 hr; type: cell-based, human
Procedure: Cell supernatants were analyzed for cytotoxic lysis by measuring adenylate kinase (AK) release. […] The lack of AK release was confirmed for all cell lines tested.
100% viability (ATP assay) was determined in vehicle only control wells.

[8] = Pharmacokinetics in healthy volunteers following multiple doses; details: 20 mg
[9] = test system: select human cancer cells; assay: Growth inhibition in proliferation assays, summary over cell lines; type: cell-based
[10] = test system: BxPC3 pancreatic adenocarcinoma cells; assay: Anchorage-dependent growth inhibition (ATP content, 48 hr); type: cell-based, human; details: BxPC3, 48 hr
[11] = 2.5 mg/kg, extrapolated from 25 mg/kg in Balb/c mice
[12] = 5 mg/kg, extrapolated from 25 mg/kg in Balb/c mice
[13] = 10 mg/kg, extrapolated from 25 mg/kg in Balb/c mice

For `COc1cc(F)c(F)c(Nc2ccc(I)cc2F)c1NS(=O)(=O)C1(C[C@H](O)CO)CC1` [Compound A], the “hind paw edema (paw volume)” value [1] was “significant anti-inflammatory activity”, the “pERK formation in brain” value ([2]; Colo205 xenograft mice, pharmacodynamic/pharmacokinetic study) was “minimal inhibition” and the EC50 ([2]; Mus musculus, plasma concentration, Colo205-bearing nu/nu mice, single dose 2.5-25 mg/kg) was > 5000 nM. It also gave an AUC [3, 11] of 5500 ng·h/mL, a Cmax [3, 11] of 990 ng/mL and a Cmin [3, 11] of 3 ng/mL. For the same compound, the AUC [3, 12] was 11000 ng·h/mL, the Cmax [3, 12] was 1970 ng/mL and the Cmin [3, 12] was 6 ng/mL. The AUC [3, 13] was 22000 ng·h/mL, the Cmax [3, 13] was 3940 ng/mL and the Cmin [3, 13] was 12 ng/mL. It also gave a Cmin ([3]; 25 mg/kg, Balb/c mice) of 29 ng/mL, an AUC ([3]; mouse, in vivo, oral, 25 mg/kg, Balb/c mice, read-out: AUC) of 55000 ng·h/mL and a Cmax ([3]; mouse, in vivo, oral, 25 mg/kg, Balb/c mice, read-out: Cmax) of 9850 ng/mL. For the same compound, the GI50 [4] was 65 ± 19 nM, the Cmax ([5]; 2 mg, 2 mg dose, Day 35) was 0.202 ng/mL and the Tmax ([5]; 2 mg, 2 mg dose, Day 35) was 2 h. It also gave a Tmax ([5]; 4 mg, 4 mg dose, Day 1) of 1.5 h, a Cmax ([5]; 4 mg, 4 mg dose, Day 35) of 0.544 ng/mL and a Tmax ([5]; 4 mg, 4 mg dose, Day 35) of 1 h. It also gave a Cmax ([5]; 10 mg, 10 mg dose, Day 35) of 1.57 ng/mL, a Cmax ([5]; 20 mg, 20 mg dose, Day 35) of 3.28 ng/mL and an AUC ([5]; 2 mg dose, Day 35) of 2.07 ng·h/mL. It also gave an AUC ([5]; 4 mg dose, Day 35) of 5.12 ng·h/mL, an AUC ([5]; 10 mg dose, Day 35) of 14.3 ng·h/mL and an AUC ([5]; 20 mg dose, Day 35) of 29.5 ng·h/mL.

With `COc1cc(F)c(F)c(Nc2ccc(I)cc2F)c1NS(=O)(=O)C1(C[C@H](O)CO)CC1` the “effect on cell cycle progression” value [6] was “arrest in the G1 phase of the cell cycle”, the “AK, Cell killing, % Control” value ([7]; 1 uM) was 4% and the “cytotoxic cell lysis (AK release)” value ([7]; 100% cell killing with 20 μM tamoxifen) was “lack of cytotoxic cell lysis”. The “Rac AUCτ (accumulation index)” value [8] was 1.24, the GI50 ([9]; mean over A375, Colo205, HT29 and A431, 48 hr, ATP content, read-out: growth inhibition, mean potency (GI50)) was 79 nM and the GI50 ([9]; select human cancer cells, range, read-out: GI50 values, anchorage dependent proliferation assays) was 70 to 89 nM. The GI50 ([9]; select human cancer cells, read-out: GI50, anchorage dependent proliferation assays) was 51 nM, the GI50 ([9]; select human cancer cells, read-out: GI50, anchorage independent proliferation assays) was 22 nM and the GI50 [10] was > 1000 nM.
